We go through three sequences from patent US20070060508A1, “Binding molecules” (priority 2002, published 2007).

The subject of this series is Daudi cells. The series is described as follows: Cytotoxicity test: NK effector cells (YT) incubated with tumor target cells (Daudi) plus test peptide, LDH release. To be noted: YT and Daudi cells 1:10, 16 h. Type of series: cell-based. On the procedure: For the cytotoxicity measurement, NK cells, which specifically kill tumor cells, as effector cells were incubated with tumor cells as target cells in the presence of the test peptides. The cytotoxicity measurement was performed by measuring the release of lactate dehydrogenase (LDH) according to the standard protocol by a cytotoxicity test kit (Promega, Germany) and in a microwell plate reader. As NK cells (E), YT cells (DSMZ, Germany) were used. As target cells (T), Daudi cells (DSMZ, Germany) were used. YT and Daudi cells were seeded in microwell plates at a ratio of 1:10 and incubated in the presence of 0.3, 3, 30:M test peptide for 16 h.
On the next day, 10:l of lysis buffer each were added to the cells and the cells were incubated for additional 2 h. Subsequently, 5:l of the agent were transferred into a second microwell plate and combined with 50:l of substrate buffer. After a 30 min incubation, the reaction was terminated by 50:l of stop solution and the absorption of the formed MTT color complex was measured in a microwell plate reader.
On the technique in general: Release of lactate dehydrogenase indicates damage to the cell membrane.

Ends that are not written are not given here.

With “APTSSSTKKTQLQLEHFLLDFQMILNGINN [Sequence 2, APTSSSTKKT QLQLEHFLLD FQMILNGINN]”, the Cytotoxicity runs as follows: (0.3:M test peptide) 30%; (3:M test peptide) 80%; (30:M test peptide) 10%.
Turning to “APTSSSTKKTQLQLEHFLMKFQMILNGINN [Sequence 3, APTSSSTKKT QLQLEHFLMK FQMILNGINN]”, the Cytotoxicity reads like this: (0.3:M test peptide) 0%; (3:M test peptide) 20%; (30:M test peptide) 0%.
As for “APTSSSTKKTQLQLEHLLLKLQMILNGINN [Sequence 1, APTSSSTKKT QLQLEHLLLK LQMILNGINN]”, the Cytotoxicity by setting is: (0.3:M test peptide) 30%; (3:M test peptide) 30%; (30:M test peptide) 30%.
